# Results reported in patent publication US5219884A, “Immunosuppressant” (Taito Co., Ltd., priority 1990, dated 1993).
# Where two headings read alike, the source gives them in different places.
# How the values were obtained:
# [1] = tested on: mouse allogenic mixed lymphocyte reaction (BALB/c responder, C57BL/6 stimulator spleen cells); experiment: mouse allogenic mixed lymphocyte reaction (MLR), blastogenesis by 3H-thymidine uptake; type: cell-based
# [2] = tested on: KB; experiment: in vitro; type: cell-based, human
# [3] = tested on: U937; experiment: in vitro; type: cell-based, human
# [4] = tested on: HL60; experiment: in vitro; type: cell-based, human
# [5] = tested on: CCRF-CEM; experiment: in vitro; type: cell-based, human
# [6] = tested on: PC-14; experiment: in vitro; type: cell-based, human
# [7] = tested on: K562; experiment: in vitro; type: cell-based, human
# [8] = in vitro; type: cell-based, human; conditions: human, read-out: Suppression
# [9] = cytotoxicity to mouse L929 cells; type: cell-based; conditions: mouse, l929 cells, read-out: Suppression
# Description: (§1) Cytotoxicity to mouse L929 cells was assayed as follows:
# (§2) L929 cells were suspended to the concentration of 1.5×10^5 cells/ml in the F12 culture medium supplemented with 10% FCS. One hundred μl of the suspension was added to each well of 96-well microculture plates, and cultured at 37° C. in an atmosphere of 5% carbon dioxide for 24 hours, to which 100 μl of the test solution was added and cultured for further 48 hours. After the culture, 100 μl of the supernatant was removed and the absorbancy at 550 nm was measured in the same way as the colormetry using MTT in Experimental Example 1. The percent suppression was calculated by the following formula used as the index of cytotoxicity. [formula]
# [10] = tested on: mouse L929 cells; experiment: cytotoxicity to mouse L929 cells; type: cell-based; conditions: 550 nm
# Description: as §1, §2
# [11] = tested on: MOLT4; experiment: cytotoxicity to tumor cell line MOLT4; type: cell-based, human
# Outline: (§3)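 Human tumour lines at 2×10^5 cells/ml in RPMI1640 with 20% FCS were mixed 1:1 with test solution and cultured 72 h at 37° C, 5% CO2. MTT colorimetry at 550 nm; percent suppression served as the cytotoxicity index.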
# [12] = cytotoxicity to tumor cell line MOLT4; type: cell-based, human; conditions: human, molt4 cells, read-out: Suppression
# Outline: as §3
compound,measurement,setting,value
CCCCCCC(O)CCCCCC/C=C/CC1OC(=O)C(N)(CO)C1O (stereo not drawn) [Example 8],3H-thymidine uptake,[1]; 0.001 μg/ml,22815 cpm
same,3H-thymidine uptake,[1]; 0.01 μg/ml,3081 cpm
same,3H-thymidine uptake,[1]; 0.1 μg/ml,1586 cpm
same,inhibition at 0.001 µg/mL,"[1]; Mus musculus, Lymphocyte, 0.001 μg/ml, read-out: Suppression",21.1%
same,inhibition at 0.01 µg/mL,"[1]; Mus musculus, Lymphocyte, 0.01 μg/ml, read-out: Suppression",100%
same,inhibition at 0.1 µg/mL,"[1]; Mus musculus, Lymphocyte, 0.1 μg/ml, read-out: Suppression",100%
same,Absorbancy,[2]; 0.1 μg/ml,0.741
same,Absorbancy,[2]; 1.0 μg/ml,0.749
same,Absorbancy,[2]; 10.0 μg/ml,0.706
same,Absorbancy,[3]; 0.1 μg/ml,0.590
same,Absorbancy,[3]; 1.0 μg/ml,0.580
same,Absorbancy,[3]; 10.0 μg/ml,0.513
same,Absorbancy,[4]; 0.1 μg/ml,0.434
same,Absorbancy,[4]; 1.0 μg/ml,0.445
same,Absorbancy,[4]; 10.0 μg/ml,0.418
same,Absorbancy,[5]; 0.1 μg/ml,0.720
same,Absorbancy,[5]; 1.0 μg/ml,0.694
same,Absorbancy,[5]; 10.0 μg/ml,0.665
same,Absorbancy,[6]; 0.1 μg/ml,0.452
same,Absorbancy,[6]; 1.0 μg/ml,0.425
same,Absorbancy,[6]; 10.0 μg/ml,0.326
same,Absorbancy,[7]; 0.1 μg/ml,0.327
same,Absorbancy,[7]; 1.0 μg/ml,0.321
same,Absorbancy,[7]; 10.0 μg/ml,0.298
same,cytotoxicity at 72 h,"[8]; ccrf-cem cells, 0.1 μg/ml",0%
same,cytotoxicity at 72 h,"[8]; ccrf-cem cells, 1.0 μg/ml",0%
same,cytotoxicity at 72 h,"[8]; ccrf-cem cells, 10.0 μg/ml",3.9%
same,cytotoxicity at 72 h,"[8]; hl60 cells, 0.1 μg/ml",16.9%
same,cytotoxicity at 72 h,"[8]; hl60 cells, 1.0 μg/ml",14.8%
same,cytotoxicity at 72 h,"[8]; hl60 cells, 10.0 μg/ml",19.9%
same,cytotoxicity at 72 h,"[8]; k562 cells, 0.1 μg/ml",15.1%
same,cytotoxicity at 72 h,"[8]; k562 cells, 1.0 μg/ml",16.6%
same,cytotoxicity at 72 h,"[8]; k562 cells, 10.0 μg/ml",22.6%
same,cytotoxicity at 72 h,"[8]; kb cells, 0.1 μg/ml",0%
same,cytotoxicity at 72 h,"[8]; kb cells, 1.0 μg/ml",0%
same,cytotoxicity at 72 h,"[8]; kb cells, 10.0 μg/ml",3.3%
same,cytotoxicity at 72 h,"[8]; pc-14 cells, 0.1 μg/ml",4.6%
same,cytotoxicity at 72 h,"[8]; pc-14 cells, 1.0 μg/ml",10.3%
same,cytotoxicity at 72 h,"[8]; pc-14 cells, 10.0 μg/ml",31.2%
same,cytotoxicity at 72 h,"[8]; u937 cells, 0.1 μg/ml",0%
same,cytotoxicity at 72 h,"[8]; u937 cells, 1.0 μg/ml",0.5%
same,cytotoxicity at 72 h,"[8]; u937 cells, 10.0 μg/ml",12%
same,cytotoxicity at 48 h,[9]; 1 μg/ml,0%
same,cytotoxicity at 48 h,[9]; 10 μg/ml,0%
same,cytotoxicity at 48 h,[9]; 100 μg/ml,96%
same,Absorbancy,[10]; 1 μg/ml,0.817
same,Absorbancy,[10]; 10 μg/ml,0.738
same,Absorbancy,[10]; 100 μg/ml,0.023
same,Absorbancy,[11]; 0.1 μg/ml,0.142
same,Absorbancy,[11]; 1.0 μg/ml,0.137
same,Absorbancy,[11]; 10.0 μg/ml,0.133
same,cytotoxicity at 72 h,[12]; 0.1 μg/ml,2.1%
same,cytotoxicity at 72 h,[12]; 1.0 μg/ml,5.5%
same,cytotoxicity at 72 h,[12]; 10.0 μg/ml,8.3%
